Reference: ChEMBL document CHEMBL5154817, “Structure-activity relationship studies on O-alkylamino-tethered salicylamide derivatives with various amino acid linkers as potent anticancer agents” (Eur J Med Chem, 2022)

Key:
MDA-MB-231 = test: Antiproliferative activity against human MDA-MB-231 cells assessed as inhibition of cell growth incubated for 72 hrs by MTT assay; format: functional, cell-based; conditions: MDA-MB-231, 72 h
MCF7 = test: Antiproliferative activity against human MCF7 cells assessed as inhibition of cell growth incubated for 72 hrs by MTT assay; format: functional, cell-based; conditions: MCF7, 72 h
MDA-MB-468 = test: Antiproliferative activity against human MDA-MB-468 cells assessed as inhibition of cell growth incubated for 72 hrs by MTT assay; format: functional, cell-based; conditions: MDA-MB-468, 72 h
T47D = test: Antiproliferative activity against human T47D cells assessed as inhibition of cell growth incubated fro 72 hrs by MTT assay; format: functional, cell-based
[1] = Cytotoxicity against human MCF-10A cells incubated for 72 hrs by MTT assay; format: toxicity, cell-based

SMILES | IC50 (MDA-MB-231) [µM] | IC50 (MCF7) [µM] | IC50 (MDA-MB-468) [µM] | IC50 (T47D) [µM] | IC50 at 72 h [1] [µM]
CC(C)[C@H](NC(=O)c1cc(Cl)ccc1OCCN)C(=O)Nc1ccc2c(c1)S(=O)(=O)C=C2 | 5.95 | 4.35 |  |  | 
CC(C)[C@H](NC(=O)c1cc(Cl)ccc1OCCN)C(=O)Nc1cc(F)cc(C(F)(F)F)c1 | 4.34 | > 10 |  |  | 
CC(C)[C@H](NC(=O)c1cc(Cl)ccc1OC1CCN(C(=O)OC(C)(C)C)CC1)C(=O)Nc1ccc([N+](=O)[O-])cc1Cl | > 10 | > 10 |  |  | 
CC(C)(C)OC(=O)CC[C@H](NC(=O)c1cc(Cl)ccc1OCCNC(=O)OC(C)(C)C)C(=O)Nc1ccc([N+](=O)[O-])cc1Cl | > 10 | > 10 |  |  | 
CC(C)[C@H](NC(=O)c1cc(Cl)ccc1OCCNC(=O)OC(C)(C)C)C(=O)Nc1cc(C(F)(F)F)cc(C(F)(F)F)c1 | > 10 | > 10 |  |  | 
C[C@H](NC(=O)c1cc(Cl)ccc1OCCNC(=O)OC(C)(C)C)C(=O)Nc1ccc([N+](=O)[O-])cc1Cl | > 10 | > 10 |  |  | 
COC(=O)NCCOc1ccc(Cl)cc1C(=O)N[C@H](C(=O)Nc1ccc([N+](=O)[O-])cc1Cl)C(C)C | > 10 | > 10 |  |  | 
CC(C)[C@H](NC(=O)c1cc(Cl)ccc1OCCN)C(=O)Nc1ccc(F)c(F)c1 | > 10 | > 10 |  |  | 
CC(C)[C@H](NC(=O)c1cc(Cl)ccc1OCCCCN)C(=O)Nc1ccc([N+](=O)[O-])cc1Cl | 5.59 | > 10 |  |  | 
CC(C)(C)OCC(NC(=O)c1cc(Cl)ccc1OCCN)C(=O)Nc1ccc([N+](=O)[O-])cc1Cl (single isomer, unassigned) | 3.22 | 1.62 |  |  | 
CC(C)[C@H](NC(=O)c1cc(Cl)ccc1OCCN)C(=O)Nc1ccc([N+](=O)[O-])cc1Cl | > 10 | > 10 |  |  | 
NCCOc1ccc(Cl)cc1C(=O)N[C@@H](Cc1ccccc1)C(=O)Nc1ccc([N+](=O)[O-])cc1Cl | 7.97 | 6.58 |  |  | 
NCCOc1ccc(Cl)cc1C(=O)N[C@H](Cc1ccccc1)C(=O)Nc1ccc([N+](=O)[O-])cc1Cl | 5.02 | 4.89 |  |  | 
C=C(NC(=O)c1cc(Cl)ccc1OCCNC(=O)OC(C)(C)C)C(=O)Nc1ccc([N+](=O)[O-])cc1Cl | 5.34 | 4.48 |  |  | 
CC(C)[C@H](NC(=O)c1cc(Cl)ccc1OC1CCNCC1)C(=O)Nc1ccc([N+](=O)[O-])cc1Cl | 5.23 | > 10 |  |  | 
CC(C)[C@H](NC(=O)c1cc(Cl)ccc1OCCCCNC(=O)OC(C)(C)C)C(=O)Nc1ccc([N+](=O)[O-])cc1Cl | > 10 | > 10 |  |  | 
C[C@H](NC(=O)c1cc(Cl)ccc1OCCN)C(=O)Nc1ccc([N+](=O)[O-])cc1Cl | > 10 | > 10 |  |  | 
CC[C@@H](C)[C@H](NC(=O)c1cc(Cl)ccc1OCCN)C(=O)Nc1ccc([N+](=O)[O-])cc1Cl | 6.18 | > 10 |  |  | 
CC(C)[C@H](NC(=O)c1cc(Cl)ccc1OCCCNC(=O)OC(C)(C)C)C(=O)Nc1ccc([N+](=O)[O-])cc1Cl | > 10 | > 10 |  |  | 
CC(C)[C@H](NC(=O)c1cc(Cl)ccc1OCCNC(=O)OCc1ccccc1)C(=O)Nc1ccc([N+](=O)[O-])cc1Cl | > 10 | > 10 |  |  | 
CC(C)(C)OC(=O)N1CCC(Oc2ccc(Cl)cc2C(=O)N[C@@H](Cc2ccccc2)C(=O)Nc2ccc([N+](=O)[O-])cc2Cl)CC1 | > 10 | > 10 |  |  | 
CC(C)COC(=O)NCCOc1ccc(Cl)cc1C(=O)N[C@H](C(=O)Nc1ccc([N+](=O)[O-])cc1Cl)C(C)C | 4.9 | 10.1 |  |  | 
CC(C)C[C@H](NC(=O)c1cc(Cl)ccc1OCCNC(=O)OC(C)(C)C)C(=O)Nc1ccc([N+](=O)[O-])cc1Cl | > 10 | > 10 |  |  | 
O=C(N[C@@H](Cc1ccccc1)C(=O)Nc1cc(C(F)(F)F)cc(C(F)(F)F)c1)c1cc(Cl)ccc1OC1CCNCC1 | 2.32 | 2.63 | 2.63 | 3.19 | 5.9
CC[C@@H](C)[C@H](NC(=O)c1cc(Cl)ccc1OCCNC(=O)OC(C)(C)C)C(=O)Nc1ccc([N+](=O)[O-])cc1Cl | 4.02 | 10.5 |  |  | 
CC(C)[C@H](NC(=O)c1cc(Cl)ccc1OCCN)C(=O)Nc1ccc(C(F)(F)F)cc1Cl | 5.44 | > 10 |  |  | 

SMILES | IC50 (MDA-MB-231) [µM] | IC50 (MCF7) [µM] | IC50 (MDA-MB-468) [µM] | IC50 (T47D) [µM] | IC50 at 72 h [1] [µM]
CC(C)(C)OC(=O)N1CCC(Oc2ccc(Cl)cc2C(=O)N[C@@H](Cc2ccccc2)C(=O)Nc2cc(C(F)(F)F)cc(C(F)(F)F)c2)CC1 | > 10 | > 10 |  |  | 
CC(C)(C)OC(=O)NCCOc1ccc(Cl)cc1C(=O)N[C@@H](Cc1ccccc1)C(=O)Nc1cc(C(F)(F)F)cc(C(F)(F)F)c1 | > 10 | > 10 |  |  | 
CC(C)(C)OC(=O)NCCOc1ccc(Cl)cc1C(=O)N[C@@H](CO)C(=O)Nc1ccc([N+](=O)[O-])cc1Cl | > 10 | > 10 |  |  | 
NCCOc1ccc(Cl)cc1C(=O)NCC(=O)Nc1ccc2c(c1)S(=O)(=O)C=C2 | 6.37 | 9.44 |  |  | 
O=C(Nc1ccc([N+](=O)[O-])cc1Cl)c1cc(Cl)ccc1O [NICLOSAMIDE] | 1.78 | 8.13 |  |  | 
NCCOc1ccc(Cl)cc1C(=O)Nc1ccc([N+](=O)[O-])cc1Cl | 3.48 | 4.14 | 5.05 | 1.88 | 
CC(C)[C@H](NC(=O)c1cc(Cl)ccc1OCCNC(=O)OC(C)(C)C)C(=O)Nc1ccc(F)c(F)c1 | 3.72 | > 10 |  |  | 
CC(C)(C)OC(=O)NCCOc1ccc(Cl)cc1C(=O)N[C@@H](Cc1ccccc1)C(=O)Nc1ccc([N+](=O)[O-])cc1Cl | > 10 | > 10 |  |  | 
CC(=O)NCCOc1ccc(Cl)cc1C(=O)N[C@H](C(=O)Nc1ccc([N+](=O)[O-])cc1Cl)C(C)C | > 10 | > 10 |  |  | 
CC(C)(C)OC(=O)NCCOc1ccc(Cl)cc1C(=O)NCC(=O)Nc1ccc2c(c1)S(=O)(=O)C=C2 | 2.08 | 1.43 |  |  | 
CC(C)[C@H](NC(=O)c1cc(Cl)ccc1OCCNC(=O)OC(C)(C)C)C(=O)Nc1cc(F)cc(C(F)(F)F)c1 | 7.87 | 11.5 |  |  | 
CC(C)[C@H](NC(=O)c1cc(Cl)ccc1OCCN)C(=O)Nc1cc(C(F)(F)F)cc(C(F)(F)F)c1 | 5.43 | 6.01 |  |  | 
NCCOc1ccc(Cl)cc1C(=O)N[C@@H](Cc1ccccc1)C(=O)Nc1cc(C(F)(F)F)cc(C(F)(F)F)c1 | 4.92 | 2.95 |  |  | 
CC(C)C[C@H](NC(=O)c1cc(Cl)ccc1OCCN)C(=O)Nc1ccc([N+](=O)[O-])cc1Cl | > 10 | > 10 |  |  | 
CC(C)(C)OC(=O)NCCOc1ccc(Cl)cc1C(=O)N[C@@H](Cc1ccccc1)C(=O)Nc1ccc2c(c1)S(=O)(=O)C=C2 | 1.17 | 1.53 |  | 1.46 | 1.73
O=C(N[C@@H](Cc1ccccc1)C(=O)Nc1ccc([N+](=O)[O-])cc1Cl)c1cc(Cl)ccc1OC1CCNCC1 | 3.24 | 4.48 |  |  | 
CC(C)[C@H](NC(=O)c1cc(Cl)ccc1OCCNC(=O)OC(C)(C)C)C(=O)Nc1ccc2c(c1)S(=O)(=O)C=C2 | 1.53 | 1.52 | 2.38 | 1.59 | 2.6
CC(C)(C)OC(=O)NCCOc1ccc(Cl)cc1C(=O)N[C@@H](Cc1ccc(O)cc1)C(=O)Nc1ccc([N+](=O)[O-])cc1Cl | > 10 | 8.81 |  |  | 
CC(C)(C)OCC(NC(=O)c1cc(Cl)ccc1OCCNC(=O)OC(C)(C)C)C(=O)Nc1ccc([N+](=O)[O-])cc1Cl (single isomer, unassigned) | > 10 | > 10 |  |  | 
CC(C)(C)OC(=O)CC[C@H](NC(=O)c1cc(Cl)ccc1OCCN)C(=O)Nc1ccc([N+](=O)[O-])cc1Cl | 5.99 | 3.08 |  |  | 
CC(C)[C@H](NC(=O)c1cc(Cl)ccc1OCCCN)C(=O)Nc1ccc([N+](=O)[O-])cc1Cl | 6.77 | > 10 |  |  | 
CC(C)[C@H](NC(=O)c1cc(Cl)ccc1OCCNC(=O)OC(C)(C)C)C(=O)Nc1ccc(C(F)(F)F)cc1Cl | > 10 | > 10 |  |  | 
NCCOc1ccc(Cl)cc1C(=O)N[C@@H](Cc1ccccc1)C(=O)Nc1ccc2c(c1)S(=O)(=O)C=C2 | 1.4 | 1.62 | 3.53 | 1.58 | 2.03
CSCC[C@H](NC(=O)c1cc(Cl)ccc1OCCN)C(=O)Nc1ccc([N+](=O)[O-])cc1Cl | > 10 | > 10 |  |  | 
CSCC[C@H](NC(=O)c1cc(Cl)ccc1OCCNC(=O)OC(C)(C)C)C(=O)Nc1ccc([N+](=O)[O-])cc1Cl | > 10 | > 10 |  |  | 
